# Measured values as given in US20260285875A1, “INHIBITORS OF PARG” (858 Therapeutics, Inc., priority 2023, published 2026).
# Biological target: T1, cellular PARG (Homo sapiens, UniProt Q86W56)
# T1 construct: endogenous in cells; host or cells: HeLa
# Experiment: Nuclear PAR accumulation assay (immunofluorescence high-content imaging, MMS-treated HeLa cells)
# Format: cell-based
# Details: 1 hour compound then MMS 50 μg/mL for an additional hour
# Method in brief: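 HeLa cells pretreated with compound for 1 h at 37° C, then given 50 μg/mL MMS for another hour. After methanol fixation, PAR was immunostained with DAPI nuclear counterstain; per-nucleus intensity and percent PAR-positive cells were imaged at 20× (≥1,000 cells/well). IC50 from four-parameter logistic fit.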
# T1 sequence (Q86W56 whole entry): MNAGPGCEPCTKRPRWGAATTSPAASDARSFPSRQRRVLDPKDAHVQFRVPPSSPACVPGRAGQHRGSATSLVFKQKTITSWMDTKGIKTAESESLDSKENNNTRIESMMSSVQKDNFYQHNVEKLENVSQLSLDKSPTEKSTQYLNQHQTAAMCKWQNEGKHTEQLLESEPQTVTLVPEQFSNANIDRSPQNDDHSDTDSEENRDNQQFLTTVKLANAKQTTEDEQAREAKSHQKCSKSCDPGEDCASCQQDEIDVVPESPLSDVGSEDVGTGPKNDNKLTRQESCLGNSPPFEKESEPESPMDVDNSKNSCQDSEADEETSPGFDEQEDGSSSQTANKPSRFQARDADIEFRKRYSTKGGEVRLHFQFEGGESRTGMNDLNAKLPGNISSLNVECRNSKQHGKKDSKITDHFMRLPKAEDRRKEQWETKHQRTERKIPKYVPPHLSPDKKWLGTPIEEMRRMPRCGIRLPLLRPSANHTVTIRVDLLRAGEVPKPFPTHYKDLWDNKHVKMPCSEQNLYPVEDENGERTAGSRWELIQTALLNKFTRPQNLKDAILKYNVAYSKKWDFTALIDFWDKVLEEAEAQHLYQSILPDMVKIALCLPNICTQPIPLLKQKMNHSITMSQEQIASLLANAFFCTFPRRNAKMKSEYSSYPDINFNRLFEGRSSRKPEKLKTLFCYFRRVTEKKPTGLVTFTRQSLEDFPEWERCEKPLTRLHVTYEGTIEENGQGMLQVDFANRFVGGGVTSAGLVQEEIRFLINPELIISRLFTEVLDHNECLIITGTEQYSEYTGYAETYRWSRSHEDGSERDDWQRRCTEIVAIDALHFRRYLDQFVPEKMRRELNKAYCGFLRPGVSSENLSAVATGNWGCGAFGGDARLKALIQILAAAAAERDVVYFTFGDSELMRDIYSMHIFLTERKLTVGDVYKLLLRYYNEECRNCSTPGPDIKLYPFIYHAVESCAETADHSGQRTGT
row,Structure (SMILES),IC50 [µM]
1,"Cn1cc(CN2C(=O)c3cc(S(=O)(=O)NC4(C)CC4)ccc3N3C2=NCC3COc2ccccc2F)cn1 (stereo not shown) [Example 151, 1-((2-fluorophenoxy)methyl)-4-((1-methyl-1H-pyrazol-4-yl)methyl)-N-(1-methylcyclopropyl)-5-oxo-1,2,4,5-tetrahydroimidazo[1,2-a]quinazoline-7-sulfonamide]",< 0.1
2,"[2H]C([2H])(c1cnn(C)c1)N1C(=O)c2cc(S(=O)(=O)NC3(C)CC3)ccc2N2C1=NC[C@H]2C#Cc1cnn(C)c1 [Example 97, (R)-1-((1-methyl-1H-pyrazol-4-yl)ethynyl)-4-((1-methyl-1H-pyrazol-4-yl)methyl-d2)-N-(1-methylcyclopropyl)-5-oxo-1,2,4,5-tetrahydroimidazo[1,2-a]quinazoline-7-sulfonamide]",< 0.1
3,"C[C@@H]1CN=C2N(Cc3cnn(C)c3)C(=O)c3cc(S(=O)(=O)NC4(C)COC4)ccc3N21 [Example 73, (R)-1-methyl-4-((1-methyl-1H-pyrazol-4-yl)methyl)-N-(3-methyloxetan-3-yl)-5-oxo-1,2,4,5-tetrahydroimidazo[1,2-a]quinazoline-7-sulfonamide]",0.1 to 1
4,"Cn1cc(CN2C(=O)c3cc(S(=O)(=O)NC4(C)CC4)ccc3N3C2=NCC3COc2ccon2)cn1 (stereo not shown) [Example 150, 1-((isoxazol-3-yloxy)methyl)-4-((1-methyl-1H-pyrazol-4-yl)methyl)-N-(1-methylcyclopropyl)-5-oxo-1,2,4,5-tetrahydroimidazo[1,2-a]quinazoline-7-sulfonamide]",< 0.1
5,"C#C[C@@H]1CN=C2N(Cc3cnn(C)c3)C(=O)c3cc(S(=O)(=O)NC4(C)CC4)cc(C4=CCNCC4)c3N21 [Example 79, (R)-1-ethynyl-4-((1-methyl-1H-pyrazol-4-yl)methyl)-N-(1-methylcyclopropyl)-5-oxo-9-(1,2,3,6-tetrahydropyridin-4-yl)-1,2,4,5-tetrahydroimidazo[1,2-a]quinazoline-7-sulfonamide]",0.1 to 1
6,"Cn1cc(CN2C(=O)c3cc(S(=O)(=O)NC4(C)CC4)ccc3N3C2=NC[C@H]3C2CCC(F)(F)CC2)cn1 [Example 45, (R)-1-(4,4-difluorocyclohexyl)-4-((1-methyl-1H-pyrazol-4-yl)methyl)-N-(1-methylcyclopropyl)-5-oxo-1,2,4,5-tetrahydroimidazo[1,2-a]quinazoline-7-sulfonamide]",< 0.1
7,"CN1C(=O)c2cc(S(=O)(=O)NC3(C)CC3)ccc2N2C1=NCC2C#Cc1cc2cccnc2[nH]1 (stereo not shown) [Example 169, 1-((1H-pyrrolo[2,3-b]pyridin-2-yl)ethynyl)-4-methyl-N-(1-methylcyclopropyl)-5-oxo-1,2,4,5-tetrahydroimidazo[1,2-a]quinazoline-7-sulfonamide]",0.1 to 1
8,"C#C[C@H]1CN=C2N(Cc3cnn(C)c3)C(=O)c3cc(S(=O)(=O)NC4(C)CC4)cc(Br)c3N21 [Example 94, (S)-9-bromo-1-ethynyl-4-((1-methyl-1H-pyrazol-4-yl)methyl)-N-(1-methylcyclopropyl)-5-oxo-1,2,4,5-tetrahydroimidazo[1,2-a]quinazoline-7-sulfonamide]",0.1 to 1
9,"CNC1(C#C[C@@H]2CN=C3N(Cc4cnn(C)c4)C(=O)c4cc(S(=O)(=O)NC5(C)CC5)ccc4N32)CC1 [Example 127, (R)-4-((1-methyl-1H-pyrazol-4-yl)methyl)-1-((1-(methylamino)cyclopropyl)ethynyl)-N-(1-methylcyclopropyl)-5-oxo-1,2,4,5-tetrahydroimidazo[1,2-a]quinazoline-7-sulfonamide]",< 0.1
10,"C[C@@H]1CN=C2N(Cc3cnn(C)c3)C(=O)c3cc(S(=O)(=O)NC4(C)CC4)sc3N21 [Example 41, (R)-8-methyl-5-((1-methyl-1H-pyrazol-4-yl)methyl)-N-(1-methylcyclopropyl)-4-oxo-4,5,7,8-tetrahydroimidazo[1,2-a]thieno[3,2-e]pyrimidine-2-sulfonamide]",0.1 to 1
11,"CN(C)CC#C[C@@H]1CN=C2N(Cc3cnn(C)c3)C(=O)c3cc(S(=O)(=O)NC4(C)CC4)ccc3N21 [Example 31, (R)-1-(3-(dimethylamino)prop-1-yn-1-yl)-4-((1-methyl-1H-pyrazol-4-yl)methyl)-N-(1-methylcyclopropyl)-5-oxo-1,2,4,5-tetrahydroimidazo[1,2-a]quinazoline-7-sulfonamide]",< 0.1

# Continued, values first:
row,IC50 [µM],Structure (SMILES)
1,0.1 to 1,"CC(=O)N1CCn2ncc(CN3C(=O)c4cc(S(=O)(=O)NC5(C)CC5)ccc4N4C3=NC[C@H]4C)c2C1 [Example 279, (R)-4-((5-acetyl-4,5,6,7-tetrahydropyrazolo[1,5-a]pyrazin-3-yl)methyl)-1-methyl-N-(1-methylcyclopropyl)-5-oxo-1,2,4,5-tetrahydroimidazo[1,2-a]quinazoline-7-sulfonamide]"
2,0.1 to 1,"CC(=O)N1CCn2ncc(CN3C(=O)c4cc(S(=O)(=O)NC5(C)CC5)ccc4N4C3=N[C@H]3CCC[C@H]34)c2C1 [Example 291, (7aS,10aR)-6-((5-acetyl-4,5,6,7-tetrahydropyrazolo[1,5-a]pyrazin-3-yl)methyl)-N-(1-methylcyclopropyl)-5-oxo-6,7a,8,9,10,10a-hexahydro-5H-cyclopenta[4,5]imidazo[1,2-a]quinazoline-3-sulfonamide]"
3,< 0.1,"[2H]C([2H])(c1cnn(C)c1)N1C(=O)c2cc(S(=O)(=O)NC3(C)CC3)ccc2N2C1=NC[C@H]2C#Cc1cnc(C)nc1 [Example 275, (R)-4-((1-methyl-1H-pyrazol-4-yl)methyl-d2)-N-(1-methylcyclopropyl)-1-((2-methylpyrimidin-5-yl)ethynyl)-5-oxo-1,2,4,5-tetrahydroimidazo[1,2-a]quinazoline-7-sulfonamide]"
4,< 0.1,"COc1ccc(C#CC2CN=C3N(C)C(=O)c4cc(S(=O)(=O)NC5(C)CC5)ccc4N32)cn1 (stereo not shown) [Example 204, 1-((6-methoxypyridin-3-yl)ethynyl)-4-methyl-N-(1-methylcyclopropyl)-5-oxo-1,2,4,5-tetrahydroimidazo[1,2-a]quinazoline-7-sulfonamide]"
5,< 0.1,"Cc1ccc(C#CC2CN=C3N(C)C(=O)c4cc(S(=O)(=O)NC5(C)CC5)ccc4N32)cn1 (stereo not shown) [Example 203, 4-methyl-N-(1-methylcyclopropyl)-1-((6-methylpyridin-3-yl)ethynyl)-5-oxo-1,2,4,5-tetrahydroimidazo[1,2-a]quinazoline-7-sulfonamide]"
6,0.1 to 1,"CN1C(=O)c2cc(S(=O)(=O)NC3(C)CC3)ccc2N2C1=NC[C@H]2C#Cc1cnc2ncccn12 [Example 171, (R)-1-(imidazo[1,2-a]pyrimidin-3-ylethynyl)-4-methyl-N-(1-methylcyclopropyl)-5-oxo-1,2,4,5-tetrahydroimidazo[1,2-a]quinazoline-7-sulfonamide]"
7,< 0.1,"CN1CCC[C@@H]1C#C[C@@H]1CN=C2N(Cc3cnn(C)c3)C(=O)c3cc(S(=O)(=O)NC4(C)CC4)ccc3N21 [Example 256, (R)-4-((1-methyl-1H-pyrazol-4-yl)methyl)-N-(1-methylcyclopropyl)-1-(((R)-1-methylpyrrolidin-2-yl)ethynyl)-5-oxo-1,2,4,5-tetrahydroimidazo[1,2-a]quinazoline-7-sulfonamide]"
8,< 0.1,"Cn1cc(CN2C(=O)c3cc(S(=O)(=O)NC4(C)CC4)ccc3N3C2=NC[C@H]3C#Cc2ccnn2C2CC2)cn1 [Example 193, (R)-1-((1-cyclopropyl-1H-pyrazol-5-yl)ethynyl)-4-((1-methyl-1H-pyrazol-4-yl)methyl)-N-(1-methylcyclopropyl)-5-oxo-1,2,4,5-tetrahydroimidazo[1,2-a]quinazoline-7-sulfonamide]"
